According to ChEMBL document CHEMBL5360530, “Structure activity relationship (SAR) and anticancer activity of pyrrolidine derivatives: Recent developments and future prospects (A review)” (Eur J Med Chem, 2023):

Key:
[1] = Cytotoxicity against human Chang liver cells assessed as cell growth inhibition measured after 24 hrs by DAPI and propidium iodide staining based assay; assay type: toxicity
M-HeLa = test: Anticancer activity against human HelaM cells assessed as cell growth inhibition measured after 24 hrs by DAPI and propidium iodide staining based assay; assay type: functional
FaDu = test: Anticancer activity against human FaDu cells assessed as cell growth inhibition; assay type: functional, cell-based
HCT-116 = test: Anticancer activity against human HCT-116 cells assessed as cell growth inhibition measured after 48 hrs by MTT assay; assay type: functional, cell-based; details: HCT-116, 48 h
MCF7 = test: Anticancer activity against human MCF7 cells assessed as cell growth inhibition measured after 48 hrs by MTT assay; assay type: functional, cell-based; details: MCF7, 48 h
HepG2 = test: Anticancer activity against human HepG2 cells assessed as cell growth inhibition measured after 48 hrs by MTT assay; assay type: functional, cell-based; details: HepG2, 48 h

| SMILES | IC50 at 24 h [1] [µM] | IC50 (M-HeLa) [µM] | IC50 (FaDu) [µM] | other results |
| --- | --- | --- | --- | --- |
| Oc1ccc2c(c1)OCO2 | > 100 | 14.7 | – | – |
| COc1ccc(-c2c(O)c3ccccc3oc2=O)cc1 | > 100 | ≥ 14.7 | – | – |
| CCCCCCc1c(O)c2ccccc2oc1=O | > 100 | ≥ 14.7 | – | – |
| CCCCCCc1c(O)cc(C)oc1=O | > 100 | ≥ 14.7 | – | – |
| O=C1Nc2ccccc2[C@@]12N[C@H](Cc1c[nH]c3ccccc13)[C@@H]([N+](=O)[O-])[C@@H]2c1ccccc1 | – | – | 30 | – |
| O=C1Nc2ccc(OC(F)(F)F)cc2[C@@]12N[C@H](Cc1c[nH]c3ccccc13)[C@@H]([N+](=O)[O-])[C@@H]2c1ccccc1 | – | – | ≥ 30 | – |
| O=C1Nc2ccccc2[C@@]12N[C@H](Cc1c[nH]c3ccccc13)[C@@H]([N+](=O)[O-])[C@@H]2c1ccc(Br)cc1 | – | – | 39.7 | – |
| O=C1Nc2ccccc2[C@@]12N[C@H](Cc1c[nH]cn1)[C@@H]([N+](=O)[O-])[C@@H]2c1cccc([N+](=O)[O-])c1 | – | – | ≥ 30 | – |
| O=C1Nc2ccc(OC(F)(F)F)cc2[C@@]12N[C@H](Cc1c[nH]cn1)[C@@H]([N+](=O)[O-])[C@@H]2c1ccc(Cl)cc1 | – | – | ≥ 30 | – |
| Cc1ccc([C@H]2[C@H]([N+](=O)[O-])[C@@H](Cc3c[nH]cn3)N[C@]23C(=O)Nc2ccc(OC(F)(F)F)cc23)cc1 | – | – | ≥ 30 | – |
| Cc1ccc([C@H]2[C@H]([N+](=O)[O-])[C@@H](Cc3c[nH]cn3)N[C@]23C(=O)Nc2ccccc23)cc1 | – | – | ≥ 30 | – |
| O=C1Nc2ccc(OC(F)(F)F)cc2[C@@]12N[C@H](Cc1c[nH]cn1)[C@@H]([N+](=O)[O-])[C@@H]2c1ccc(Br)cc1 | – | – | ≥ 30 | – |
| Cc1ccc([C@H]2[C@H]([N+](=O)[O-])[C@@H](Cc3c[nH]c4ccccc34)N[C@]23C(=O)Nc2ccccc23)cc1 | – | – | ≥ 30 | – |
| O=C1Nc2ccccc2[C@@]12N[C@H](Cc1c[nH]c3ccccc13)[C@@H]([N+](=O)[O-])[C@@H]2c1ccccc1Cl | – | – | ≥ 30 | – |
| O=C1Nc2ccc(OC(F)(F)F)cc2[C@@]12N[C@H](Cc1c[nH]cn1)[C@@H]([N+](=O)[O-])[C@@H]2c1cccc([N+](=O)[O-])c1 | – | – | ≥ 30 | – |
| O=C1Nc2ccccc2[C@@]12N[C@H](Cc1c[nH]cn1)[C@@H]([N+](=O)[O-])[C@@H]2c1ccc(Br)cc1 | – | – | 40.1 | – |
| COc1ccc([C@H]2[C@H]([N+](=O)[O-])[C@@H](Cc3c[nH]cn3)N[C@]23C(=O)Nc2ccccc23)cc1 | – | – | ≥ 30 | – |
| COc1ccc([C@H]2[C@H]([N+](=O)[O-])[C@@H](Cc3c[nH]cn3)N[C@]23C(=O)Nc2ccc(OC(F)(F)F)cc23)cc1 | – | – | ≥ 30 | – |
| COc1ccc([C@H]2[C@H]([N+](=O)[O-])[C@@H](Cc3c[nH]c4ccccc34)N[C@]23C(=O)Nc2ccccc23)cc1 | – | – | ≥ 30 | – |
| O=C1Nc2ccccc2[C@@]12N[C@H](Cc1c[nH]c3ccccc13)[C@@H]([N+](=O)[O-])[C@@H]2c1cccc([N+](=O)[O-])c1 | – | – | ≥ 30 | – |
| O=C1Nc2ccc(OC(F)(F)F)cc2[C@@]12N[C@H](Cc1c[nH]cn1)[C@@H]([N+](=O)[O-])[C@@H]2c1ccccc1 | – | – | ≥ 30 | – |
| O=C1Nc2ccccc2[C@@]12N[C@H](Cc1c[nH]cn1)[C@@H]([N+](=O)[O-])[C@@H]2c1ccccc1Cl | – | – | ≥ 30 | – |

| SMILES | IC50 at 24 h [1] [µM] | IC50 (M-HeLa) [µM] | IC50 (FaDu) [µM] | other results |
| --- | --- | --- | --- | --- |
| Cc1ccc([C@H]2[C@H]([N+](=O)[O-])[C@@H](Cc3c[nH]c4ccccc34)N[C@]23C(=O)Nc2ccc(OC(F)(F)F)cc23)cc1 | – | – | ≥ 30 | – |
| O=C1Nc2ccc(OC(F)(F)F)cc2[C@@]12N[C@H](Cc1c[nH]cn1)[C@@H]([N+](=O)[O-])[C@@H]2c1ccccc1Cl | – | – | ≥ 30 | – |
| O=C1Nc2ccccc2[C@@]12N[C@H](Cc1c[nH]c3ccccc13)[C@@H]([N+](=O)[O-])[C@@H]2c1ccc(Cl)cc1 | – | – | ≥ 30 | – |
| COc1ccc([C@H]2[C@H]([N+](=O)[O-])[C@@H](Cc3c[nH]c4ccccc34)N[C@]23C(=O)Nc2ccc(OC(F)(F)F)cc23)cc1 | – | – | ≥ 30 | – |
| O=C1Nc2ccccc2[C@@]12N[C@H](Cc1c[nH]cn1)[C@@H]([N+](=O)[O-])[C@@H]2c1ccc(Cl)cc1 | – | – | ≥ 30 | – |
| O=C1Nc2ccccc2[C@@]12N[C@H](Cc1c[nH]cn1)[C@@H]([N+](=O)[O-])[C@@H]2c1ccccc1 | – | – | 43 | – |
| O=C1Nc2ccc(OC(F)(F)F)cc2[C@@]12N[C@H](Cc1c[nH]c3ccccc13)[C@@H]([N+](=O)[O-])[C@@H]2c1cccc([N+](=O)[O-])c1 | – | – | ≥ 30 | – |
| O=C1Nc2ccc(OC(F)(F)F)cc2[C@@]12N[C@H](Cc1c[nH]c3ccccc13)[C@@H]([N+](=O)[O-])[C@@H]2c1ccccc1Cl | – | – | ≥ 30 | – |
| O=C1Nc2ccc(OC(F)(F)F)cc2[C@@]12N[C@H](Cc1c[nH]c3ccccc13)[C@@H]([N+](=O)[O-])[C@@H]2c1ccc(Br)cc1 | – | – | ≥ 30 | – |
| O=[N+]([O-])c1c(Cl)cc2c(no[n+]2[O-])c1Nc1ccc(-c2ccc(Br)cc2)c(O)c1 | > 100 | ≥ 14.7 | – | – |
| O=C(/C=C/c1ccc(Br)cc1)[C@H]1[C@H](c2ccc(Br)cc2)C2CSCN2C12C(=O)Nc1c(Br)cc(Br)cc12 (stereo not given in full) | – | – | – | IC50 (HCT-116): 2.2 µM; IC50 (MCF7): 2.5 µM |
| Oc1cc2c(cc1-c1ccccc1)OCO2 | > 100 | 14.7 | – | – |
| Cc1cc(O)c(CCN(C)C)c(=O)o1 | > 100 | ≥ 14.7 | – | – |
| Oc1cc2c(cc1-c1ccc(F)cc1)OCO2 | > 100 | 14.7 | – | – |
| Cc1cc(O)c(-c2ccc(Br)cc2)c(=O)o1 | > 100 | ≥ 14.7 | – | – |
| O=c1oc2ccccc2c(O)c1-c1ccc(F)cc1 | > 100 | ≥ 14.7 | – | – |
| Cc1ccc(/C=C/C(=O)[C@H]2[C@H](c3ccc(C)cc3)C3CSCN3C23C(=O)Nc2c(Br)cc(Br)cc23)cc1 (stereo not given in full) | – | – | – | IC50 (HepG2): ≥ 0.8 µM; IC50 (HCT-116): 1.57 µg/mL; IC50 (MCF7): 2.5 µg/mL |
| O=C(/C=C/c1cccc([N+](=O)[O-])c1)[C@H]1[C@H](c2cccc([N+](=O)[O-])c2)C2CSCN2C12C(=O)Nc1c(Br)cc(Br)cc12 (stereo not given in full) | – | – | – | IC50 (HepG2): 5 µM; IC50 (HCT-116): 2.8 µM; IC50 (MCF7): 4 µM |
| Cc1cc(O)c(C2CCCCC2)c(=O)o1 | > 100 | ≥ 14.7 | – | – |
| CCCCCCc1cc2c(cc1O)OCO2 | > 100 | 14.7 | – | – |
| O=[N+]([O-])c1c(Cl)cc2c(no[n+]2[O-])c1Nc1ccc(-c2ccc(F)cc2)c(O)c1 | > 100 | ≥ 14.7 | – | – |
| O=[N+]([O-])c1c(Cl)cc2c(no[n+]2[O-])c1Nc1cccc(O)c1 | > 100 | ≥ 14.7 | – | – |

| SMILES | IC50 at 24 h [1] [µM] | IC50 (M-HeLa) [µM] | IC50 (FaDu) [µM] | other results |
| --- | --- | --- | --- | --- |
| Cc1cc(O)c(-c2ccccc2)c(=O)o1 | > 100 | ≥ 14.7 | – | – |
| CN(C)CCc1cc2c(cc1O)OCO2 | > 100 | 14.7 | – | – |
| COc1ccc(-c2cc3c(cc2O)OCO3)cc1 | > 100 | 14.7 | – | – |
| CCCCCCc1ccc(Nc2c([N+](=O)[O-])c(Cl)cc3c2no[n+]3[O-])cc1O | > 100 | ≥ 14.7 | – | – |
| COc1ccc(-c2c(O)cc(C)oc2=O)cc1 | > 100 | ≥ 14.7 | – | – |
| Oc1cc2c(cc1-c1ccc(Br)cc1)OCO2 | > 100 | 14.7 | – | – |
| O=C(/C=C/c1ccc(Cl)cc1)[C@H]1[C@H](c2ccc(Cl)cc2)C2CSCN2C12C(=O)Nc1c(Br)cc(Br)cc12 (stereo not given in full) | – | – | – | IC50 (HCT-116): < 3 µM |
| CN(C)CCc1c(O)c2ccccc2oc1=O | > 100 | ≥ 14.7 | – | – |
| Cc1cc(O)c(-c2ccc(F)cc2)c(=O)o1 | > 100 | ≥ 14.7 | – | – |
| O=[N+]([O-])c1c(Cl)cc2c(no[n+]2[O-])c1Nc1ccc(C2CCCCC2)c(O)c1 | > 100 | ≥ 14.7 | – | – |
| CN(C)CCc1ccc(Nc2c([N+](=O)[O-])c(Cl)cc3c2no[n+]3[O-])cc1O | > 100 | ≥ 14.7 | – | – |
| O=c1oc2ccccc2c(O)c1C1CCCCC1 | > 100 | ≥ 14.7 | – | – |
| O=[N+]([O-])c1c(Cl)cc2c(no[n+]2[O-])c1Nc1ccc(-c2ccccc2)c(O)c1 | > 100 | ≥ 14.7 | – | – |
| O=c1oc2ccccc2c(O)c1-c1ccc(Br)cc1 | > 100 | ≥ 14.7 | – | – |
| COc1ccc(-c2ccc(Nc3c([N+](=O)[O-])c(Cl)cc4c3no[n+]4[O-])cc2O)cc1 | > 100 | ≥ 14.7 | – | – |
| O=C(/C=C/c1cccc(Br)c1)[C@H]1[C@H](c2cccc(Br)c2)C2CSCN2C12C(=O)Nc1c(Br)cc(Br)cc12 (stereo not given in full) | – | – | – | IC50 (HCT-116): < 3 µM |
| Cc1cc(O)cc(=O)o1 | > 100 | ≥ 14.7 | – | – |
| O=c1oc2ccccc2c(O)c1-c1ccccc1 | > 100 | ≥ 14.7 | – | – |
| Cc1ccc(S(=O)(=O)N2CCCC2C(=O)Nc2ccc3c(C)cc(=O)oc3c2)cc1 (single isomer, unassigned) | – | – | – | IC50 (MCF7): 1.07 µM |
| O=c1cc(O)c2ccccc2o1 [4-HYDROXYCOUMARINS] | > 100 | ≥ 14.7 | – | – |
